From patent US10947188B2, “Small molecule ferroptosis inducers” (THE TRUSTEES OF COLUMBIA UNIVERSITY IN THE CITY OF NEW YORK, priority 2016, dated 2021)
≈ marks a conversion by molar mass, not a printed value. Values belong to the molecule of their own block, whether it stands above or below them.

Tests used:
[1] = Cobalt (II) binding assay in vitro (absorbance spectrum); conditions: absorbance 300-700 nm
Protocol: For each cluster I compound (CIL13, −52, and −64), prepared two-fold dilution series with DMSO. We added 30 μL per well of either water or 10 μM cobalt (II) chloride solution to each well of a 384-well plate. Dilution series of each compound in DMSO were added by 10 μL per well. After solutions had been mixed by shaking of the plate using a Victor 3 plate reader (PerkinElmer), absorbance was scanned between 300 and 700 nm for each compound. Finally the following Absorbance value for each compound was plotted (see FIG. 9B):
[formula] where Abs is the absorbance at each wavelength. Search of Commercially Available Structural Analogs of CIL41/70.

[2] = tested on: HT-1080 cells; experiment: Lethality of commercially available CIL41/70 structural analogs; assay type: cell-based; conditions: Homo sapiens, tested once in technical triplicates
In short: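 HT-1080 cells (1,000/well) dosed at seeding with twofold 12-point dilutions of lethal compounds. Viability read by Alamar Blue fluorescence (530/590 nm) after 6 h, normalized to media and vehicle wells. Analogs tested once, in technical triplicate.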

[3] = tested on: HT-1080 cells; experiment: Flow cytometry of intracellular Ca(II) levels (Fluo-4); assay type: cell-based; conditions: 2 μM FIN56; over the course of 9 h
From the text: The third compound set examined was suppressors of both ferroptosis and necrosis. These were predicted to target three proteins: alpha-1 (α1) adrenergic receptors 1B and 1D and calmodulin 3. Activation of α1 activates phospholipase C and increases Ca(II). Calmoduline 3 is a calcium-binding protein. Since all three proteins are relevant to calcium signaling, we hypothesized that calcium mediates FIN56-induced ferroptosis.

[4] = tested on: glutathione (GSH and GSSG) in HT-1080 cells; experiment: Glutathione-quantification assay; assay type: cell-based; conditions: 5 μM FIN56 with 100 μM α-tocopherol; 10 h
Protocol: Seeded 500,000 HT-1080 cells in a 10-cm dish. Cells were grown at 37° C. for 16 h. On the day of the analysis, cells were cotreated with 100 μM α-tocopherol and either vehicle (DMSO) or a ferroptosis inducer (10 μM erastin, 0.5 μM (1S,3R)-RSL3, or 5 μM FIN56) and incubated for 10 h. Cells were then trypsinized, pelleted, washed once with 400 μL of ice-cold PBS containing 1 mM EDTA, and sonicated. After the cell debris had been pelleted and removed, both oxidized and reduced glutathione in 120 μL of sample was quantified in technical triplicates using the QuantiChrome glutathione assay kit (BioAssay Systems). The glutathione quantity was normalized to the protein concentration measured via Bradford assay (Bio-Rad).

[5] = tested on: 143B cells; experiment: FIN56 lethality in 143B cells with or without mitochondrial DNA; assay type: cell-based; conditions: ρ+ or ρ0 cells
From the text: CoQ10 is an electron carrier in the mitochondrial respiratory chain and an endogenous antioxidant. However, whether it functions in the regulation of ferroptosis via either of these mechanisms remains to be elucidated. […] Thus, exactly how CoQ10 protects cells from FIN56 remains elusive, but the process may involve reprogramming of lipid metabolism in a way that is not conducive to the execution of ferroptosis, or a specific antioxidant action distinct from that of α-tocopherol.

[6] = tested on: NCI60 cell line panel; experiment: Cell-line selectivity in the NCI60 cell line panel; assay type: cell-based
From the text: Previously reported ferroptosis inducers either deplete glutathione (by inhibiting cystine uptake) or are covalent GPX4 inhibitors.

binding to cobalt (II) in vitro [1]: bound to cobalt (II) in vitro
Structure (SMILES): Cc1cccnc1Nc1nc(-c2ccccn2)cs1 [CIL13]

Structure (SMILES): N/C(=N\OC(=O)C12CC3CC(CC(C3)C1)C2)c1ccccc1 [CIL41]
EC50 [2]: 2.8 µg/mL (≈ 9.38 µM)

Structure (SMILES): O=S(=O)(NC1CCCCC1)c1ccc2c(c1)C(=NO)c1cc(S(=O)(=O)NC3CCCCC3)ccc1-2 [FIN56, N2,N7-dicyclohexyl-9-(hydroxyimino)-9H-fluorene-2,7-disulfonamide]
intracellular Ca(II) levels (Fluo-4) [3]: increased intracellular Ca(II) levels
glutathione depletion [4]: did not deplete glutathione
sensitivity of 143B cells with or without mitochondrial DNA [5]: both sensitive to FIN56-induced ferroptosis
cell-line selectivity pattern in NCI60 [6]: more similar to other GPX4 inhibitors than to GSH-depleting compounds
